In brackets after ≈: the same amount, converted by molar mass. Positions of bridges follow the written chain, without caps; N, C: chain ends. Non-standard residues stand in square brackets, D forms with d. Residues, ends and D or L forms follow the SMILES beside them. *: point of attachment. Palmitoyl = CCCCCCCCCCCCCCCC(=O)*; X3 = CC[C@H](C)CCCCC(=O)*; Dab = NCC[C@H](N)C(=O)O
Experiments:
[1] = tested on: E. coli; assay: Antibiogram of ESKAPE pathogens; type: cell-based; conditions: column assigned by order in flattened table; for MIC: Escherichia coli
Description: (§1) Supplementary Table 1. Antibiogram of ESKAPE pathogens used in this study.
(§2) Bacteria susceptible to all (blue color) or intermediate/resistant to at least one (red color) of antibiotics per class following the EUCAST breakpoints. Black color is shown if the susceptibility to agents in that class is not assessed. Values are minimal inhibition concentrations (MIC) in µg/ml or for Chloramphenicol in diameter (mm). […]

[2] = tested on: A. baumannii; assay: Antibiogram of ESKAPE pathogens; type: cell-based; conditions: column assigned by order in flattened table
Description: as §1, §2

[3] = tested on: S. Typhimurium; type: cell-based; conditions: radial diffusion assay
Description: (§3) Antimicrobial activity was analyzed by radial diffusion assay. Log-phase bacteria were cultivated for up to 18 h in TSB (TSB, Becton Dickinson, USA), washed and diluted to 4 × 10^6 CFU in 10 ml agar. Bacteria were incubated in 10 ml of 10 mM sodium phosphate, pH 7.4, containing 0.3 mg/ml of TSB powder and 1% (w/v) low EEO-agarose (AppliChem). 1 µg of each lipopeptide was pipetted into punched wells in a final volume of 4 µl and diffused into the gel for 3 h at 37 °C. After that, a nutrient-rich gel with 6% TSB (w/v) and 1% agarose in 10 mM sodium phosphate buffer was poured on top of the first gel and incubated for up to 24 h at 37 °C. Then the diameter of inhibition zones was measured.

[4] = tested on: A. baumannii DSM30007 4-MRGN
Description: Bactericidal activity was assessed by broth microdilution assay. Log-phase bacteria were collected by centrifugation (2500 rpm, 10 min, 4 °C), washed twice with 10 mM sodium phosphate buffer containing 1% (w/v) TSB and the optical density at 600 nm was adjusted to 0.1. Approximately 5 × 10^5 CFU/ml bacteria were incubated with serial peptide concentrations (1.17–150 µM) in a final volume of 100 µl in 10 mM sodium phosphate buffer containing 1% (w/v) TSB for 2 h at 37 °C. After incubation, 100 µl of 6% TSB (w/v) were added and absorbance was measured at 600 nm (Tecan, Switzerland) and monitored for 18 h. Afterward, 100 µl per well were plated on LB agar to determine the numbers of viable bacteria microbiologically. Bactericidal activity is expressed as the LC99.9, the lowest concentration that killed ≥99.9 % of bacteria.

[5] = tested on: multidrug resistant bacteria belonging to the ESKAPE pathogen panel; type: cell-based; conditions: broth microdilution, ESKAPE panel
Description: Bactericidal activity was assessed by broth microdilution assay. […] After incubation, 100 µl of 6% TSB (w/v) were added and absorbance was measured at 600 nm (Tecan, Switzerland) and monitored for 18 h. Afterward, 100 µl per well were plated on LB agar to determine the numbers of viable bacteria microbiologically. Bactericidal activity is expressed as the LC99.9, the lowest concentration that killed ≥99.9 % of bacteria.

[6] = tested on: several pathogenic bacteria; assay: Radial diffusion assay, all tested strains; type: cell-based
Description: as §3

[7] = tested on: K. pneumoniae; conditions: one K. pneumoniae strain, which one not assignable
Description: as §1, §2

[8] = tested on: ESKAPE pathogens; assay: organism not typed; conditions: one strain of A. baumannii, P. aeruginosa or E. coli, not assignable
Description: as §1, §2

SMILES: CC(C)(O/N=C(\C(=O)N[C@@H]1C(=O)N2C(C(=O)[O-])=C(C[n+]3ccccc3)CS[C@H]12)c1csc(N)n1)C(=O)O [Ceftazidim]
- MIC (antibiogram) ([1]; strain DSM682): ≥ 64 µg/mL
- MIC (antibiogram) ([1]; strain DSM8695): ≤ 1 µg/mL
- MIC (antibiogram) ([2]; strain DSM30007): ≥ 64 µg/mL

SMILES: CCCCCCCCCCCCCCCC(=O)N[C@@H](CCCNC(=N)N)C(=O)NCC(=O)N[C@@H](CCCCN)C(=O)N[C@@H](C)C(=O)N[C@@H](CCCCN)C(=O)N[C@@H](CS)C(=O)N[C@@H](CS)C(=O)N[C@@H](CCCCN)C(=O)O [Pam-2] (Palmitoyl-RGKAKCCK-OH; C-terminus assumed)
- inhibition of S. Typhimurium growth (in words) [3]: consistently inhibited
- growth inhibition of colistin- and tigecycline-resistant isolate (in words) [4]: inhibited the growth
- bactericidal activity (in words) [5]: highly effective
- antimicrobial activity (in words) [6]: potent inhibition

SMILES: CC[C@H](C)CCCCC(=O)N[C@@H](CCN)C(=O)N[C@H](C(=O)N[C@@H](CCN)C(=O)N[C@H]1CCNC(=O)[C@H]([C@@H](C)O)NC(=O)[C@H](CCN)NC(=O)[C@H](CCN)NC(=O)[C@H](CC(C)C)NC(=O)[C@@H](CC(C)C)NC(=O)[C@H](CCN)NC1=O)[C@@H](C)O [Colistin] (X3-[Dab]T[Dab][Dab][Dab][dL]L[Dab][Dab]T; lactam 4-C (inferred); N-terminus assumed)
- MIC (antibiogram) [7]: 0.25 µg/mL (≈ 0.214 µM)
- MIC (antibiogram) [8]: 1 µg/mL (≈ 0.855 µM)

SMILES: CN(C)c1cc(NC(=O)CNC(C)(C)C)c(O)c2c1C[C@H]1C[C@H]3[C@H](N(C)C)C(O)=C(C(N)=O)C(=O)[C@@]3(O)C(O)=C1C2=O [Tigecycline]
- MIC ([1]; strain DSM682): ≤ 0.5 µg/mL
- MIC ([1]; strain DSM8695): ≤ 0.5 µg/mL
- MIC ([2]; Acinetobacter baumannii, strain ECII): 4 µg/mL (≈ 6.83 µM)
